Measurements: US8658794B2, “8-methyl-1-phenyl-imidazol[1,5-a]pyrazine compounds as Lck inhibitors and uses thereof” (Merck Sharp & Dohme B.V., priority 2010, dated 2014)

Each compound was assayed against T1, N-terminal His6-tagged recombinant full-length human Lck (Homo sapiens, UniProt P06239) (assay: Lck IMAP assay). Details: ATP 6 μM (KM,ATP), enzyme pre-incubated with compounds for 60 minutes, values given as bins.
T1 construct: N-terminal His6-tagged recombinant full-length human Lck; His6 (N); purchased Millipore
Format: biochemical
Source text: Inhibition of kinase activity can be measured using the Immobilized Metal Assay for Phosphochemicals (IMAP) assay. IMAP is a homogeneous fluorescence polarization (FP) assay based on affinity capture of phosphorylated peptide substrates. IMAP uses fluorescein-labeled peptide substrates that, upon phosphorylation by a protein kinase, bind to so-called IMAP nanoparticles, which are derivatized with trivalent metal complexes. Binding causes a change in the rate of the molecular motion of the peptide, and results in an increase in the FP value observed for the fluorescein label attached to the substrate peptide (Gaudet et al. A homogeneous fluorescence polarization assay adaptable for a range of protein serine/threonine and tyrosine kinases. J. Biomol. Screen (2003) 8, 164-175).
Enzyme used was N-terminal His6-tagged recombinant full-length human Lck from Millipore. Phosphorylation substrate was a fluorescein-labeled peptide (5FAM-KVEKIGEGTYGVV—NH2) derived from p34cdc2 from Molecular Devices. Enzymes, substrate and ATP were diluted in Kinase Reaction buffer (10 mM Tris-HCl, 10 mM MgCl2, 0.01% Tween-20, 0.05% NaN3 pH 7.2, 1 mM DTT (dithiotreitol). The final volume at the kinase reaction step of the assay in the 384-well plate was 20 μl. Final amount of enzyme in the reaction was 0.1 U/ml. Enzyme was pre-incubated with compounds diluted in 1% DMSO (dimethylsulfoxide) for 60 minutes at room temperature in the dark. Subsequently, peptide substrate to a final concentration of 100 nM, and ATP to a final concentration of 6 μM were added and the mix was incubated for 120 minutes at room temperature in the dark. IMAP progressive binding buffer (75% 1× buffer A, 25% 1× buffer B with 1:600 Progressive Binding Reagent; Molecular Devices) was added, followed by an incubation step of 60 minutes at room temperature in the dark. Finally, the FP signal was read on an Envision Multilabel reader (Perkin Elmer).
All biochemical assays were run at KM,ATP of the enzyme using non-saturated conditions, meaning that during the incubation time it was assured that the signal increase was linear with time. For all biochemical assays a reference standard was used on each plate.
Ten point serial dilutions using a √10 dilution factor were used for dose response testing of compounds. Starting concentration was 10^-6M for Lck IMAP assays. Dose-response curves were run as two experiments on duplicate plates (N=1; n=2). All data was normalized to percentage effect based on maximum (Max) and minimum (Min) control values. On every 384 assay plate 16 wells were used as minimum wells (wells with ATP, 0% effect) and 16 wells were used as maximum wells (wells without ATP, 100% effect). 16 wells were used for measuring the background signal, obtained from a kinase reaction containing all constituents except the labeled peptide substrate. Percentage effect was plotted against log dilution concentration of compound to obtain sigmoid dose response curves. pIC50 values were calculated using ActivityBase.

T1 sequence (P06239 whole entry): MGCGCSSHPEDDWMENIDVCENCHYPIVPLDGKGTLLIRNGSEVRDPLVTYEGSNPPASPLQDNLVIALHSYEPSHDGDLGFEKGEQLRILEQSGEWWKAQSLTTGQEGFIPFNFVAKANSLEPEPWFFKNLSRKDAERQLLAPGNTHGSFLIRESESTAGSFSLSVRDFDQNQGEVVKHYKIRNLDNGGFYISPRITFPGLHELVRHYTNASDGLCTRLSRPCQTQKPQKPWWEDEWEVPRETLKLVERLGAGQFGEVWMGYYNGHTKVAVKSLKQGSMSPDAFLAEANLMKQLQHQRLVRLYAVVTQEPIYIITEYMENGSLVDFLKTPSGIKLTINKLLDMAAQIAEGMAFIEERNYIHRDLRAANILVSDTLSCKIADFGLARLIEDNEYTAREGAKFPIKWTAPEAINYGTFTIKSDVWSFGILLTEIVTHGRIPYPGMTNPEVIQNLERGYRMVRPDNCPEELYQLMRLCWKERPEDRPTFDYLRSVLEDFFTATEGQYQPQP

`COc1cc(-c2nc([C@H]3CC[C@H](OC(=O)NC4CCCC4)CC3)n3ccnc(C)c23)ccc1NC(=O)c1cc2c(OC)cccc2n1C` [Example 51, (trans)-4-(1-(3-Methoxy-4-(4-methoxy-1-methyl-1H-indole-2-carboxamido)phenyl)-8-methylimidazo[1,5-a]pyrazin-3-yl)cyclohexyl cyclopentylcarbamate] and `COc1cc(-c2nc([C@H]3CC[C@H](NCC(F)F)CC3)n3ccnc(C)c23)ccc1NC(=O)c1cc2c(OC)cccc2n1C` [Example 40, N-(4-(3-((trans)-4-(2,2-Difluoroethylamino)cyclohexyl)-8-methylimidazo[1,5-a]pyrazin-1-yl)-2-methoxyphenyl)-4-methoxy-1-methyl-1H-indole-2-carboxamide] cannot be ordered by IC50: 10 to 100 nM for the first, ≤ 10 nM for the second.

`COc1ccc2[nH]c(C(=O)Nc3ccc(-c4nc(C5CCOCC5)n5ccnc(C)c45)cc3OC)cc2n1` [Example 42, 5-methoxy-N-(2-methoxy-4-(8-methyl-3-(tetrahydro-2H-pyran-4-yl)imidazo[1,5-a]pyrazin-1-yl)phenyl)-1H-pyrrolo[3,2-b]pyridine-2-carboxamide] and `COc1cc(-c2nc(C3CCOCC3)n3ccnc(C)c23)ccc1NC(=O)c1cc2ccccc2n1C` [Example 1, N-[2-Methoxy-4-[8-methyl-3-(tetrahydro-2H-pyran-4-yl)imidazo[1,5-a]pyrazine]phenyl]-1-methyl-1H-indole-2-carboxamide] cannot be ordered by IC50: 10 to 100 nM for the first, ≤ 10 nM for the second.

`COc1cc(-c2nc(C3CCOCC3)n3ccnc(C)c23)ccc1NC(=O)O[C@@H](C)CCO` [Example 44, (S)-4-hydroxybutan-2-yl 2-methoxy-4-(8-methyl-3-(tetrahydro-2H-pyran-4-yl)imidazo[1,5-a]pyrazin-1-yl)phenylcarbamate] and `CCC[C@H](C)OC(=O)Nc1ccc(-c2nc([C@H]3CC[C@H](N(C)CCOC)CC3)n3ccnc(C)c23)cc1OC` [Example 26a, (S)-pentan-2-yl 2-methoxy-4-(3-((trans)-4-((2-methoxyethyl)(methyl)amino)cyclohexyl)-8-methylimidazo[1,5-a]pyrazin-1-yl)phenylcarbamate] cannot be ordered by IC50: 10 to 100 nM for the first, ≤ 10 nM for the second.

`COc1cc(-c2nc([C@H]3CC[C@H](N4CCN(C)CC4)CC3)n3ccnc(C)c23)ccc1NC(=O)c1cc2c(O)cccc2n1C` [Example 59, 4-Hydroxy-N-(2-methoxy-4-(8-methyl-3-((trans)-4-(4-methylpiperazin-1-yl)cyclohexyl)imidazo[1,5-a]pyrazin-1-yl)phenyl)-1-methyl-1H-indole-2-carboxamide] and `COc1cc(-c2nc([C@H]3CC[C@H](N4CCN(C)CC4)CC3)n3ccnc(C)c23)ccc1NC(=O)c1cc2ccccc2n1C` [Example 33b, N-(2-methoxy-4-(8-methyl-3-((trans)-4-(4-methylpiperazin-1-yl)cyclohexyl)imidazo[1,5-a]pyrazin-1-yl)phenyl)-1-methyl-1H-indole-2-carboxamide 2,2,2-trifluoroacetate] cannot be ordered by IC50: ≤ 10 nM for the first, ≤ 10 nM for the second.

`COc1cc(-c2nc(C3CCN(C4CCN(C(C)=O)CC4)CC3)n3ccnc(C)c23)ccc1NC(=O)c1cc2c(OC)cccc2n1C` [Example 49, N-(4-(3-(1′-acetyl-1,4′-bipiperidin-4-yl)-8-methylimidazo[1,5-a]pyrazin-1-yl)-2-methoxyphenyl)-4-methoxy-1-methyl-1H-indole-2-carboxamide] and `COc1cc(-c2nc([C@H]3CC[C@H](N4CCN(C(C)=O)CC4)CC3)n3ccnc(C)c23)ccc1NC(=O)c1cc2c(OC)cccc2n1C` [Example 2, N-(4-(3-((Trans)-4-(4-acetylpiperazin-1-yl)cyclohexyl)-8-methylimidazo[1,5-a]pyrazin-1-yl)-2-methoxyphenyl)-4-methoxy-1-methyl-1H-indole-2-carboxamide] cannot be ordered by IC50: ≤ 10 nM for the first, ≤ 10 nM for the second.

`COc1cc(-c2nc([C@H]3CC[C@H](N4CCN(C)C(=O)C4)CC3)n3ccnc(C)c23)ccc1NC(=O)c1cc2c(OC)cccc2n1C` [Example 74, 4-Methoxy-N-(2-methoxy-4-(8-methyl-3-((trans)-4-(4-methyl-3-oxopiperazin-1-yl)cyclohexyl)imidazo[1,5-a]pyrazin-1-yl)phenyl)-1-methyl-1H-indole-2-carboxamide] and `COc1cc(-c2nc([C@H]3CC[C@@H](N4CC(F)(F)C4)CC3)n3ccnc(C)c23)ccc1NC(=O)c1cc2c(OC)cccc2n1C` [Example 10, N-(4-(3-((cis)-4-(3,3-difluoroazetidin-1-yl)cyclohexyl)-8-methylimidazo[1,5-a]pyrazin-1-yl)-2-methoxyphenyl)-4-methoxy-1-methyl-1H-indole-2-carboxamide] cannot be ordered by IC50: ≤ 10 nM for the first, ≤ 10 nM for the second.

`COc1cc(-c2nc(N3CCN(C4CCOCC4)CC3)n3ccnc(C)c23)ccc1NC(=O)c1cc2c(OC)cccc2n1C` [Example 34, 4-Methoxy-N-(2-methoxy-4-(8-methyl-3-(4-(tetrahydro-2H-pyran-4-yl)piperazin-1-yl)imidazo[1,5-a]pyrazin-1-yl)phenyl)-1-methyl-1H-indole-2-carboxamide] and `COc1cc(-c2nc(C3CCN(C4CCOCC4)CC3)n3ccnc(C)c23)ccc1NC(=O)c1cc2c(OC)cccc2n1C` [Example 30, 4-Methoxy-N-(2-methoxy-4-(8-methyl-3-(1-(tetrahydro-2H-pyran-4-yl)piperidin-4-yl)imidazo[1,5-a]pyrazin-1-yl)phenyl)-1-methyl-1H-indole-2-carboxamide] cannot be ordered by IC50: ≤ 10 nM for the first, ≤ 10 nM for the second.

`COc1cc(-c2nc(C3CCN(C(=O)CN)CC3)n3ccnc(C)c23)ccc1NC(=O)c1cc2ccccc2n1C` [Example 20, N-(4-(3-(1-(2-Aminoacetyl)piperidin-4-yl)-8-methylimidazo[1,5-a]pyrazin-1-yl)-2-methoxyphenyl)-1-methyl-1H-indole-2-carboxamide] and `COc1cc(-c2nc(C3CCN(C)CC3)n3ccnc(C)c23)ccc1NC(=O)c1cc2ccccc2n1C` [Example 43, N-(2-methoxy-4-(8-methyl-3-(1-methylpiperidin-4-yl)imidazo[1,5-a]pyrazin-1-yl)phenyl)-1-methyl-1H-indole-2-carboxamide] cannot be ordered by IC50: ≤ 10 nM for the first, ≤ 10 nM for the second.

`COc1cc(-c2nc([C@H]3CC[C@H](N4CCN(C)CC4)CC3)n3ccnc(C)c23)ccc1NC(=O)c1cc2ccsc2n1C` [Example 56, N-(2-methoxy-4-(8-methyl-3-((trans)-4-(4-methylpiperazin-1-yl)cyclohexyl)imidazo[1,5-a]pyrazin-1-yl)phenyl)-6-methyl-6H-thieno[2,3-b]pyrrole-5-carboxamide] and `COC(=O)N1CCC(c2nc(-c3ccc(NC(=O)c4cc5c(OC)cccc5n4C)c(OC)c3)c3c(C)nccn23)CC1` [Example 22, Methyl 4-(1-(3-methoxy-4-(4-methoxy-1-methyl-1H-indole-2-carboxamido)phenyl)-8-methylimidazo[1,5-a]pyrazin-3-yl)piperidine-1-carboxylate] cannot be ordered by IC50: ≤ 10 nM for the first, ≤ 10 nM for the second.

`COc1cc(-c2nc(N3CCC(N4CCOCC4)CC3)n3ccnc(C)c23)ccc1NC(=O)OC(C)C` [Example 25, Isopropyl 2-methoxy-4-(8-methyl-3-(4-morpholinopiperidin-1-yl)imidazo[1,5-a]pyrazin-1-yl)phenylcarbamate] and `COc1cc(-c2nc(C3CCC(=O)CC3)n3ccnc(C)c23)ccc1NC(=O)c1cc2c(OC)cccc2n1C` [Example 71, 4-Methoxy-N-(2-methoxy-4-(8-methyl-3-(4-oxocyclohexyl)imidazo[1,5-a]pyrazin-1-yl)phenyl)-1-methyl-1H-indole-2-carboxamide] cannot be ordered by IC50: 10 to 100 nM for the first, ≤ 10 nM for the second.
